Measured values published in publication PMC4929166, “Pharmacological evaluation of synthetic cannabinoids identified as constituents of spice” (Forensic Toxicology, 2016).
Where two headings read alike, the source gives them in different places.

Experiments:
human GPR18 = target: T1, human GPR18 (Homo sapiens, UniProt Q14330); test: β-Arrestin recruitment assay (PathHunter) at GPR18; format: cell-based; details: for Human GPR18 % activation: percent in brackets beside EC50 >10 µM; for Human GPR18 % inhibition: percent in brackets beside IC50
T1 construct: β-galactosidase enzyme fragment (PathHunter complementation tag)
T1 sequence (Q14330 1-331): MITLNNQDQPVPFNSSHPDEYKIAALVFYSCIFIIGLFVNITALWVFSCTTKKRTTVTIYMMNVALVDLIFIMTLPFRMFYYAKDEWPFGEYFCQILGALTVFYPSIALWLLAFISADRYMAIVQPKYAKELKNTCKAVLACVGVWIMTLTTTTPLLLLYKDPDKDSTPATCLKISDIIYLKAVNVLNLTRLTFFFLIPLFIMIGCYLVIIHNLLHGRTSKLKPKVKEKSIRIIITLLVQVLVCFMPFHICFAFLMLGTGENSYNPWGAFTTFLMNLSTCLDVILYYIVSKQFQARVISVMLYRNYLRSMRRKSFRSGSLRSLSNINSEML
Experimental: (§1) Recruitment of β-arrestin to the respective receptor was detected by using β-galactosidase enzyme fragment complementation technology (β-arrestin PathHunter™ assay, DiscoverX, Fremont, CA, USA) as previously described. Data were obtained from three independent experiments, performed in duplicates. Data were analyzed using Graph Pad Prism Version 4.02 (San Diego, CA, USA).

CB1 receptor [1] = target: T2, CB1 receptor (Homo sapiens, UniProt P21554); test: biochemical; format: binding; parameters: expressed in transfected cells; host or cells: CHO cells (membrane preparation); details: for Ki: versus 0.1 nM [3H]CP55,940, CHO cell membranes, mean ± SEM of three to five experiments, read-out: Ki ± SEM Human CB1; for CB1 selectivity Ki CB2/KiCB1: Table S1, selectivity index from Ki values
CB2 receptor [2] = target: T3, CB2 receptor (Homo sapiens, UniProt P34972); test: biochemical; format: binding; parameters: expressed in transfected cells; host or cells: CHO cells (membrane preparation); details: for CB2 selectivity Ki CB1/KiCB2: Table S1, selectivity index from Ki values; for Ki: versus 0.1 nM [3H]CP55,940, CHO cell membranes, mean ± SEM of three to five experiments, read-out: Ki ± SEM Human CB2
CB1 receptor [3] = target: T2, CB1 receptor; test: cell-based; format: cell-based; parameters: expressed in transfected cells; host or cells: CHO cells; details: cAMP accumulation, forskolin 10 µM; test concentration 1 µM or 10 µM; normalized to CP55,940
CB2 receptor [4] = target: T3, CB2 receptor; test: cAMP accumulation assay in CHO cells expressing CB2; format: cell-based; parameters: expressed in transfected cells; host or cells: CHO cells; details: cAMP accumulation, forskolin 10 µM, normalized to CP55,940; for efficacy at CB2 receptor (in words): test concentration 1 µM or 10 µM
human GPR55 = target: T4, human GPR55 (Homo sapiens, UniProt Q9Y2T6); test: β-Arrestin recruitment assay (PathHunter) at GPR55; format: cell-based; details: for IC50: antagonist mode; for Human GPR55 % activation: percent in brackets beside EC50 >10 µM; for Human GPR55 % inhibition: percent in brackets beside IC50
T4 construct: β-galactosidase enzyme fragment (PathHunter complementation tag)
Experimental: as §1

[5] = Human GPR55 IC50, β-arrestin assay

T3 sequence (P34972 whole entry): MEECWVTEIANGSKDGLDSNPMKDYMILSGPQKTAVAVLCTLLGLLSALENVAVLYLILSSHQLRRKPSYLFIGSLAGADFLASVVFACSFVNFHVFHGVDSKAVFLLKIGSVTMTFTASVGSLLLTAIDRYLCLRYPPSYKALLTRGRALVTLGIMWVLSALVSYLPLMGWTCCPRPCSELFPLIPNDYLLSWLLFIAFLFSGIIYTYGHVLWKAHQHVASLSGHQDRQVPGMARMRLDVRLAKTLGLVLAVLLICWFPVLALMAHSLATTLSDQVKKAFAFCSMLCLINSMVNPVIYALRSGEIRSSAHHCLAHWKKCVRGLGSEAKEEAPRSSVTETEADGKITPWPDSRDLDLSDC
T4 sequence (Q9Y2T6 whole entry, the tested form may be a part): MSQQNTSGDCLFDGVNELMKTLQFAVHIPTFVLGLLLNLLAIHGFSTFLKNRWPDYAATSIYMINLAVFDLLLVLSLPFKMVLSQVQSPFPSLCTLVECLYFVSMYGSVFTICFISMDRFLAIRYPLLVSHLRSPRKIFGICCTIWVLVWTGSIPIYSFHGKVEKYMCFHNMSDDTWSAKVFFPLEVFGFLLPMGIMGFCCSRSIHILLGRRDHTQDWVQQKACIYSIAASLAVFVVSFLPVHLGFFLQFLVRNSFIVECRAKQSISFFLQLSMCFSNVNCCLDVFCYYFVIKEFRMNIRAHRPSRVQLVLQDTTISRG
T2 sequence (P21554 whole entry): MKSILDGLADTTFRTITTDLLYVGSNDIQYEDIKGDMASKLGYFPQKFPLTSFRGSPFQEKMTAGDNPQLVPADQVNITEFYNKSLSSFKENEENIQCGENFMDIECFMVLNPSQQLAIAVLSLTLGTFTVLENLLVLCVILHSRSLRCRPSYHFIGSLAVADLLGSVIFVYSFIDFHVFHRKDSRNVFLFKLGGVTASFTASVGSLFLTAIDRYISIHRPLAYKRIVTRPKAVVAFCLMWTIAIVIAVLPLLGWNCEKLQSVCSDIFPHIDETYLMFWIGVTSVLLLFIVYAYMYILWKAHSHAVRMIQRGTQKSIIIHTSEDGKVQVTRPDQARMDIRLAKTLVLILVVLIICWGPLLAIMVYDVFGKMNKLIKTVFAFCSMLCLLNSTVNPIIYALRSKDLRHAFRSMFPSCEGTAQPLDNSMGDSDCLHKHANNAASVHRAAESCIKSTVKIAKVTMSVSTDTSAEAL

SMILES	Human GPR18 % activation (human GPR18; β-arrestin assay) [%]	Human GPR18 % inhibition (human GPR18; β-arrestin assay) [%]	Ki (CB1 receptor [1]) [nM]	CB2 selectivity Ki CB1/KiCB2 (CB2 receptor [2])	Ki (CB2 receptor [2]) [nM]	efficacy at CB1 receptor (in words) (CB1 receptor [3])	Human GPR55 % activation (human GPR55; β-arrestin assay) [%]	Human GPR55 % inhibition (human GPR55; β-arrestin assay) [%]	EC50 (human GPR18) [nM]	IC50 (human GPR18) [nM]	CB1 selectivity Ki CB2/KiCB1 (CB1 receptor [1])	EC50 (human GPR55) [nM]	IC50 (human GPR55; [5]) [nM]	other results
CN1CCCCC(Cn2cc(C(=O)C3C(C)(C)C3(C)C)c3ccccc32)C1 (stereo not drawn) [Compound 44, AB005-azepane-isomer]	11	−6	> 10000	47.2	212 ± 55	did not activate	21	18						EC50 (human GPR18; read-out: Human GPR18 EC50, β-arrestin assay, agonist mode): > 10000 nM; IC50 (human GPR18; read-out: Human GPR18 IC50, β-arrestin assay, antagonist mode): > 10000 nM; affinity for the CB1 receptor (in words) (CB1 receptor [1]; at concentrations up to 10 µM): no affinity; inhibition of radioligand binding at human CB1 (percent in brackets) (CB1 receptor [1]; printed in brackets beside Ki ~/>10,000 nM, concentration not given): 13%; efficacy at CB2 receptor (in words) (CB2 receptor [4]): did not activate; EC50 (human GPR55; read-out: Human GPR55 EC50, β-arrestin assay, agonist mode): > 10000 nM; IC50 (human GPR55; read-out: Human GPR55 IC50, β-arrestin assay): > 10000 nM
O=C(Oc1cccc2ccccc12)c1cn(CCCCCF)c2ccccc12 [Compound 19, NM-2201]	−8	32	0.332 ± 0.107		0.732 ± 0.174	higher efficacy than the full agonist CP55,940	17	23	> 10000	> 10000	2.2	> 10000	> 10000	
O=C(NC12CC3CC(CC(C3)C1)C2)c1nn(CCCCCF)c2ccccc12 [Compound 17, 5F-APINACA (5F-AKB48)]			1.94 ± 0.55	7.3	0.266 ± 0.041	activated CB1 receptor more efficaciously than CB2								
O=C(Nc1cccc2ccccc12)c1cn(CCCCCF)c2ccccc12 [Compound 5, 5F-NNEI]	−3	−17	3.69 ± 1.97		13.4 ± 1.6		25	−8	> 10000	> 10000	3.6	> 10000	> 10000	
CCCCCn1nc(C(=O)c2cccc3ccccc23)c2ccccc21 [Compound 28, THJ018]	33	−5	5.84 ± 1.32	1.3	4.57 ± 0.28		6		> 10000	> 10000		> 10000	8200 ± 2110	
O=C(Nc1ccc2ccccc2c1)c1cn(CCCCCF)c2ccccc12 [Compound 7, 5F-NNEI-2-naphthyl-isomer]	9	5	235 ± 15	1.0	226 ± 24	lower efficacy than Δ^9-THC	19	20	> 10000	> 10000	1.0	> 10000	> 10000	fold decrease of affinity when naphthyl is linked in 2-position (CB1 receptor [1]; CB1, compared with 5F-NNEI (5)): about 100 fold; inhibition at 30 µM (CB2 receptor [2]; at 30 µM, read-out: Maximal inhibition of radioligand binding, human CB2): 80%; efficacy at CB2 receptor (in words) (CB2 receptor [4]): lower efficacy than Δ^9-THC
CCCCCc1cc(O)c2c(c1)OC(C)(C)[C@@H]1CCC(C)=C[C@@H]21 [Compound 1, Δ^9-tetrahydrocannabinol, reference compound]														activation of CB2 receptor compared to full agonist CP55,940 (CB2 receptor [4]): 60–70%
Cc1c(C(=O)C2C(C)(C)C2(C)C)c2ccccc2n1CCCCCF [Compound 47, M-144]	−7	67	19.4 ± 7.8	4.2	4.59 ± 1.48		−5	86	> 10000	~10000		> 10000	~10000	
CCCCCn1nc(C(=O)Nc2cccc3ccccc23)c2ccccc21 [Compound 8, MN-18]	2	37	3.86 ± 0.9	1.1	3.47 ± 0.89	lower efficacy than Δ^9-THC	27	35	> 10000	> 10000	0.9	> 10000	> 10000	efficacy at CB2 receptor (in words) (CB2 receptor [4]): lower efficacy than Δ^9-THC
CCc1ccc(C(=O)c2cn(CCCCCF)c3ccccc23)c2ccccc12 [Compound 31, EAM-2201]	14	4	0.38 ± 0.111	1.0	0.371 ± 0.052	higher efficacy than the full agonist CP55,940	−24		> 10000	> 10000	1.0	> 10000	1860 ± 160	
O=C(Oc1cccc2cccnc12)c1cn(CC2CCCCC2)c2ccccc12 [Compound 27, BB-22]	2	18	0.217 ± 0.056		0.338 ± 0.045	higher efficacy than the full agonist CP55,940	9	34	> 10000	> 10000	1.6	> 10000	> 10000	
O=C(Oc1cccc2ccccc12)c1cn(Cc2ccc(F)cc2)c2ccccc12 [Compound 20, FDU-PB-22]	30	−4	1.19 ± 0.39		2.43 ± 0.92		11	30	> 10000	> 10000	2.0	> 10000	> 10000	
